Laboratory results taken from the METLIN SMRT retention time set (Domingo-Almenara et al. 2019).

Test: gradient 5% acetonitrile 3 min, to 50% in 2 min, to 85% in 15 min, held 3 min, 100 µL/min
Conditions: column: Zorbax Extend-C18 2.1 x 50 mm; eluents: water / acetonitrile, 0.1% formic acid
Method in brief: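 Pure standards were run in mixtures of ~100 molecules by HPLC coupled to a quadrupole time-of-flight mass spectrometer. The column was a Zorbax Extend-C18 (2.1 × 50 mm, 1.8 μm) at 100 μL/min, with water and acetonitrile each containing 0.1% formic acid, in positive and negative ionization mode. Dead and dwell volumes were 40 μL and 900 μL. Retention time was taken from computationally picked adduct peaks, each manually inspected, with data collected over 3 months.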

Work on `CC1(C)CC(=O)c2cn(-c3ccccc3)c(=O)c(C(=O)Nc3ccc(F)cc3F)c2C1` yielded an RP-LC retention time of 1090 s.

In the case of `CCOC(=O)CNC(=O)CSc1nnc(NC(=O)c2nc3ccccc3s2)s1`, the RP-LC retention time is reported as 736 s.

`Cc1ccc(NC(=O)N2CCC(n3cnc4cc(F)ccc4c3=O)CC2)cc1F` gave an RP-LC retention time of 832 s.

`O=C(Nc1ccccc1C(=O)NCCC1=CCCCC1)C1=CSCCO1` gave an RP-LC retention time of 1090 s.

Work on `Cc1noc(-c2nc(-c3ccc(Cl)c(F)c3)no2)n1` yielded an RP-LC retention time of 1090 s.

`COc1cccc(CNC(=O)CN2CCN(Cc3ccc(C)cc3)C(=O)C2=O)c1` showed an RP-LC retention time of 715 s.

Compound `O=C(Cn1nc2c(N3CCCCCC3)nccn2c1=O)Nc1cc(F)ccc1F` has an RP-LC retention time of 731 s.

With `Cc1ccc(NC(=O)Nc2ccc3c(c2)CCN3S(=O)(=O)c2ccccc2)cc1` the RP-LC retention time was 995 s.

`Cc1occc1C(=O)N1CCC2(CC1)CC(C)(O)CCO2` (centres undefined) showed an RP-LC retention time of 645 s.

For `Cc1ccsc1-c1nnc(CC(=O)N2CCN(Cc3ccccc3)CC2)o1`, the RP-LC retention time was 630 s.

Compound `Cc1nc(Nc2ccccn2)sc1C(=O)N1CCN(C2CCCCC2)CC1` has an RP-LC retention time of 597 s.

With `CN(C(=O)Cn1nc(Cc2ccncc2)c2ccccc2c1=O)C1CCCCC1` the RP-LC retention time was 640 s.

For `O=C(C1CC1)N1CCC(c2noc(-c3cccnc3)n2)C1` (centres undefined), the RP-LC retention time was 631 s.

`Cc1cccc2c(C(=O)NCC(C)C)c3c(nc12)CCC3` showed an RP-LC retention time of 688 s.

For `CCOc1ccc2nc(C(=O)NC3CCCCC3)cn2n1`, the RP-LC retention time was 897 s.

Compound `Cn1c(=O)c(N2CCN(C(=O)C3(c4ccccc4)CC3)CC2)nc2ccccc21` has an RP-LC retention time of 951 s.

Compound `CN(C)S(=O)(=O)c1ccc(-c2nnc(C(=O)NCc3ccc4c(c3)OCO4)o2)cc1` has an RP-LC retention time of 814 s.

`CCS(=O)(=O)N1CC(=O)N(c2cccc(F)c2)C(C)(C(=O)NC2CCCCCCC2)C1` (centres undefined) gave an RP-LC retention time of 956 s.

In the case of `CCc1nc(-c2csc(S(=O)(=O)N3CCCC(C(=O)Nc4ccccc4Cl)C3)c2)no1` (centres undefined), the RP-LC retention time is reported as 1020 s.

For `O=C(NCC1COc2ccccc2O1)C(=O)Nc1cccc(Br)c1` (centres undefined), the RP-LC retention time was 1030 s.

For `Cc1cc(NC(=O)CSc2ccc(-c3cccc([N+](=O)[O-])c3)nn2)no1`, the RP-LC retention time was 752 s.

`Cc1noc(C)c1Cc1c(C(=O)NCC23CCCC=C2NC(=O)CC3)noc1C` (centres undefined) gave an RP-LC retention time of 726 s.

Work on `Cc1nn(-c2ccc(Cl)nn2)c2c1CCC2` yielded an RP-LC retention time of 946 s.

Work on `CC(C)NC(=O)Cn1c2ccccc2c2ncn(Cc3nc(-c4ccccc4)no3)c(=O)c21` yielded an RP-LC retention time of 848 s.

With `CCCCNC(=O)C1CCN(c2nc3ccc(-c4cncnc4)nc3s2)CC1` the RP-LC retention time was 788 s.

With `Cc1cc(C)c(S(=O)(=O)N2CCCC2c2nc(-c3cccc(Cl)c3)no2)c(C)c1` (centres undefined) the RP-LC retention time was 1350 s.

`COc1ccc(-c2c(C(=O)Nc3cccc(C(C)=O)c3)nc3ccccn23)cc1` gave an RP-LC retention time of 937 s.

For `Cc1ccc2oc(-c3nnc(C(=O)NCCN4CCOCC4)o3)c(C)c2c1`, the RP-LC retention time was 667 s.

`O=C(Nc1ccc(N2CCOCC2)cc1)C1CCCN(c2ncc(-c3ccc(F)cc3)cn2)C1` (centres undefined) gave an RP-LC retention time of 951 s.

Work on `COc1ccccc1OCC(=O)NCCCS(=O)(=O)N1CCN(c2ccccc2)CC1` yielded an RP-LC retention time of 796 s.

Work on `COc1ccccc1N1CCN(c2cc(SCC(=O)Nc3ccccc3Cl)ncn2)CC1` yielded an RP-LC retention time of 1110 s.

`O=C(Cc1ccc(Cl)cc1)NCC1CCN(C2CCCC2)CC1` gave an RP-LC retention time of 566 s.

`CCOC(=O)c1c(C)oc2nc(C)nc(N3CCN(c4ccccn4)CC3)c12` showed an RP-LC retention time of 654 s.

Compound `O=C(CN1CCC(c2nc(-c3ccccc3)no2)CC1)NC1CCCCC1` has an RP-LC retention time of 700 s.

Work on `Cc1cccc(-c2noc(Cn3ccn(Cc4ccc(Cl)cc4)c(=O)c3=O)n2)c1` yielded an RP-LC retention time of 960 s.

Compound `COc1ccc(-c2ncc3c(n2)CCN(C(=O)c2c(F)cccc2Cl)C3)cc1` has an RP-LC retention time of 966 s.

`Cc1ccn2c(Nc3ccccc3C)c(-c3cccc(Br)c3)nc2c1` showed an RP-LC retention time of 819 s.

With `N[C@@H]1CCCN(c2c(/C=C3\SC(=O)NC3=O)cccc2-c2ccccc2)C1` the RP-LC retention time was 772 s.

In the case of `COc1ccc(CSc2nnc3c(S(=O)(=O)N4CCCCC4)cccn23)cc1`, the RP-LC retention time is reported as 861 s.

Work on `Cc1cc(C(=O)N2CCC(N3CCCCC3)CC2)c2cc(Br)ccc2n1` yielded an RP-LC retention time of 586 s.

Work on `COc1ccc(C2Cn3nnc(-c4nc(C)no4)c3CO2)cc1` (centres undefined) yielded an RP-LC retention time of 833 s.

`CC1(C(=O)NCc2ccccc2)Cn2c(ccc2-c2ccco2)C(=O)N1C1CC1` (centres undefined) showed an RP-LC retention time of 810 s.

In the case of `Cc1cc(-c2nnc(-c3ccco3)o2)c(C)n1CC(=O)Nc1ccc(F)cc1`, the RP-LC retention time is reported as 858 s.

For `Cc1ccc(N2C(=O)C3N=NN(c4ccc(C)c(Cl)c4)C3C2=O)cc1F` (centres undefined), the RP-LC retention time was 836 s.

Compound `O=C(NCc1cccnc1)c1nc2ccccn2c1-c1ccsc1` has an RP-LC retention time of 589 s.

For `CC(=O)c1ccc(-n2ccc3c(cnc4c(-c5ccccc5)c(C)nn43)c2=O)cc1`, the RP-LC retention time was 969 s.

With `CC(C)NC(=O)C1(c2ccc(NS(C)(=O)=O)cc2)CCCCC1` the RP-LC retention time was 782 s.

With `CC(C)n1c(N2CCCN(C(=O)COc3ccc(Cl)cc3)CC2)cc(=O)n(C(C)C)c1=O` the RP-LC retention time was 914 s.

`Cc1cc(S(=O)(=O)N2CC(N(Cc3ccncc3)CC3CC3)C2)ccc1F` gave an RP-LC retention time of 709 s.

`CCN(CC)c1nc2cc(C(=O)OC)ccc2c(=O)n1Cc1ccc(C)cc1` showed an RP-LC retention time of 1310 s.

`CCCN(Cc1ccccc1)Cc1cc(=O)n2cc(Cl)ccc2n1` showed an RP-LC retention time of 649 s.

For `C=CCNC(=O)c1nc(C(=O)N2CCCCCC2)cs1`, the RP-LC retention time was 733 s.

Compound `COc1cccc(-c2cc(C(=O)N3CCN(c4ncccn4)CC3)n(C)n2)c1` has an RP-LC retention time of 754 s.

In the case of `CN(C)C(=O)c1ccc2oc(CN3CCN(C(=O)NCc4ccco4)CC3)nc2c1`, the RP-LC retention time is reported as 582 s.

Work on `Cc1ccccc1NC(=O)CN1C(=O)CC(C)S(=O)(=O)c2ccccc21` (centres undefined) yielded an RP-LC retention time of 760 s.

`Cc1ccc(NC(=O)C(=O)NCC(c2ccc3c(c2)OCO3)N2CCOCC2)c(C)c1` (centres undefined) gave an RP-LC retention time of 693 s.

For `CCOc1ccc(N2C(=O)C3N=NN(Cc4nc(-c5cccc(Br)c5)no4)C3C2=O)cc1` (centres undefined), the RP-LC retention time was 1080 s.

In the case of `O=C(NCc1ccc(Cl)cc1)c1ccc2ccnc(N3CCN(C(=O)c4ccco4)CC3)c2c1`, the RP-LC retention time is reported as 739 s.

In the case of `CN(C)c1ccc2c(c1)CN(C(=O)C1COc3ccccc3O1)CCO2` (centres undefined), the RP-LC retention time is reported as 679 s.

In the case of `Cn1cnc(S(=O)(=O)N2CCC(C(=O)N3CCN(c4cccc(Cl)c4)CC3)CC2)c1`, the RP-LC retention time is reported as 780 s.

`CCN(Cc1ccccc1)C(=O)CN1C(=O)N(c2cc(C)cc(C)c2)C2CS(=O)(=O)CC21` (centres undefined) showed an RP-LC retention time of 893 s.

With `Cc1cccc2cc(-c3noc(-c4ccccc4)n3)c(NCCc3ccc(S(N)(=O)=O)cc3)nc12` the RP-LC retention time was 1440 s.

In the case of `Cc1cnc(C2CC2)n1C1CCN(C(=O)c2cccn2C)C1` (centres undefined), the RP-LC retention time is reported as 583 s.

With `CCOc1ccc(N2CC(NC(=O)C(=O)c3c[nH]c4ccccc34)CC2=O)cc1` (centres undefined) the RP-LC retention time was 791 s.

For `CCCn1ccc2sc(C)c(C(=O)N3CCN(c4ccc(F)cc4)CC3)c2c1=O`, the RP-LC retention time was 872 s.

Work on `COCC(=O)Nc1nc(-c2ccc3c(c2)N(C)C(=O)C(C)O3)cs1` (centres undefined) yielded an RP-LC retention time of 770 s.

`COc1ccc(-n2c(=O)n(C)c(=O)c3cc(C(=O)NCc4ccc(C)cc4)cnc32)cc1` gave an RP-LC retention time of 888 s.

Work on `Cc1ccc(C(=O)Nc2cccn3nc(C(C)C)nc23)cc1C` yielded an RP-LC retention time of 1030 s.

Compound `COc1ccc(S(=O)(=O)N2CC=C(c3cn(C)c4ncccc34)CC2)cc1Cl` has an RP-LC retention time of 1010 s.

With `COc1cc(OC)c(NC(=O)N2CCCC(Cn3cnc4cccnc43)C2)cc1Cl` (centres undefined) the RP-LC retention time was 703 s.

In the case of `CN(C)c1ccc2c(c1)CN(C(=O)c1cnn(C)c1)CCO2`, the RP-LC retention time is reported as 560 s.

Compound `COC[C@@H]1CN(C(=O)c2ccoc2C)C[C@H]1c1nc(C2CC2)no1` has an RP-LC retention time of 574 s.

For `COc1ccc(Cc2nnc(C3CCN(C(=O)Cc4cccs4)CC3)s2)cc1`, the RP-LC retention time was 745 s.

For `CC1(C(=O)NCc2ccccc2)CN(S(C)(=O)=O)CC(=O)N1c1ccccc1F` (centres undefined), the RP-LC retention time was 773 s.

`Cc1oc(-c2[nH]ncc2C(=O)N(C)C)cc1S(=O)(=O)NC(C)C` showed an RP-LC retention time of 600 s.

For `CN(C)CCCNC(=O)c1cc(-c2ccc(Cl)cc2)cn1C`, the RP-LC retention time was 671 s.

Work on `CCCNC(=O)c1ccc2c(=O)n(Cc3ccccc3)c(N3CCCC3)nc2c1` yielded an RP-LC retention time of 719 s.

`CCC(C(=O)NCCN1CCN(C)CC1)n1nc(C)c2sc3ccccc3c2c1=O` (centres undefined) gave an RP-LC retention time of 629 s.

`COCCN1C(=O)c2ccccc2C(C(=O)NCCCOC(C)C)C12CCCCC2` (centres undefined) showed an RP-LC retention time of 756 s.

With `CCOC(=O)c1c(C)[nH]c(C)c1S(=O)(=O)N1CCC(C(=O)N2CCn3c2nc2ccccc23)CC1` the RP-LC retention time was 725 s.

Compound `Cc1nc(CNC(=O)c2ccc(-c3noc(C4CC4)n3)cc2)no1` has an RP-LC retention time of 717 s.

For `O=C(O)c1ccc2c(c1)N(S(=O)(=O)c1ccccc1F)CC2`, the RP-LC retention time was 789 s.

In the case of `CCOC(=O)c1[nH]c2ccc(OC)cc2c1NC(=S)N1CCN(c2ccccn2)CC1`, the RP-LC retention time is reported as 610 s.

Compound `O=C(NCC1CCN(Cc2cccs2)CC1)C1(c2ccccc2)CCOCC1` has an RP-LC retention time of 578 s.

For `CCOC(=O)c1cnn(-c2ccc(C(=O)NCc3ccco3)cn2)c1C`, the RP-LC retention time was 804 s.

`Cc1nccn1-c1cc(N2CCC3(CC2)OCCO3)nc2ccnn12` gave an RP-LC retention time of 577 s.

`CSc1ccccc1C(=O)NCC1CCN(C(=O)c2ccccc2F)CC1` gave an RP-LC retention time of 704 s.

`CC1=C(c2ccc(F)cc2)S(=O)(=O)N=C1N1CCC(C(=O)NC2CCCC2)CC1` gave an RP-LC retention time of 798 s.

In the case of `Cc1ccc(NC(=O)Cn2ccc3sccc3c2=O)cc1F`, the RP-LC retention time is reported as 785 s.
